According to patent US20230265151A1, “GIP/GLP1 CO-AGONIST COMPOUNDS” (priority 2020, published 2023):
Read-outs that look alike come from different tables or passages of the source.

What was measured:
hGLP-1R = hGLP-1R (Homo sapiens, UniProt P43220); assay: Functional cAMP formation (HTRF) in HEK-293 clonal cells expressing hGLP-1R, 0.1% bovine casein, without or with 1.0% human serum albumin; format: cell-based; set-up: expressed in transfected cells; conditions: for EC50: geometric mean
Method in brief: (§1)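 Cells were stimulated with peptide for 30 min at 37° C, then lysed in buffer carrying cAMP-d2 and anti-cAMP Eu3+-cryptate for a competitive HTRF read after at least 60 min at room temperature. The 665/620 nm ratio was converted to nM cAMP against a standard curve.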

[1] = molecular target: T1, human Gcg receptor (hGcgR) (Homo sapiens, UniProt P47871); assay: [125I]-Glucagon binding, SPA with membranes of HEK293 cells expressing hGcgR
T1 construct: expressed in transfected cells; crude membranes
T1 sequence (P47871 26-477): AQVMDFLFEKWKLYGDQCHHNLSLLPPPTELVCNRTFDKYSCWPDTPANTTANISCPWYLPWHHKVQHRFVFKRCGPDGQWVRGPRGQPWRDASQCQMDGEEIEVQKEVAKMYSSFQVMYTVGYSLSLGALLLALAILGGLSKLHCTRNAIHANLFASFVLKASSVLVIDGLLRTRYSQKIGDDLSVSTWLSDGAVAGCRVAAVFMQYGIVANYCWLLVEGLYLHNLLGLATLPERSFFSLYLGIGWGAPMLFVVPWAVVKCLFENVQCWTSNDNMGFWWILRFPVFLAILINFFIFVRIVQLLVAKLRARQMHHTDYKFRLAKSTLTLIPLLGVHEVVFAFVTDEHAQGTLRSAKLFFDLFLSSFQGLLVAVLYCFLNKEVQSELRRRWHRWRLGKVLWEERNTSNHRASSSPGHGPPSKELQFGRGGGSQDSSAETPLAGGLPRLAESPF

hGCGR = molecular target: T2, hGCGR (Homo sapiens, UniProt P47871); assay: Functional cAMP formation (HTRF) in HEK-293 clonal cells expressing hGCGR, 0.1% bovine casein, without or with 1.0% human serum albumin; format: cell-based
T2 construct: expressed in transfected cells
T2 sequence (P47871 26-477): as above
Method in brief: as §1

[2] = molecular target: T3, human GLP-1 receptor (hGLP-1R) (Homo sapiens, UniProt P43220); assay: [125I]-GLP-1 binding, SPA with membranes of HEK293 cells expressing hGLP-1R
T3 construct: expressed in transfected cells; crude membranes
T3 sequence (P43220 24-463): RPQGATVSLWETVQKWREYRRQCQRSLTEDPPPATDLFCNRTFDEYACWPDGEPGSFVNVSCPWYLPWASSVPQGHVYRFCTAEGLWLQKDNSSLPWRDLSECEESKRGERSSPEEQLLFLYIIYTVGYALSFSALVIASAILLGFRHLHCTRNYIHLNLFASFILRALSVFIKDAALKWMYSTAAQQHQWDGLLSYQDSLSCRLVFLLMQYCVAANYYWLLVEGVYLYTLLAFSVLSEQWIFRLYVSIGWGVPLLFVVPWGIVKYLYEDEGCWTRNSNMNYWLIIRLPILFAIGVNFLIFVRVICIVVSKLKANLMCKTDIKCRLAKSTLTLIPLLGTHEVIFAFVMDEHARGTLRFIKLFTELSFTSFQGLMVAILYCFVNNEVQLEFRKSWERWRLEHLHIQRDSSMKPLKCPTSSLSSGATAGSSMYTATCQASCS

hGIPR = molecular target: T4, hGIPR (Homo sapiens, UniProt P48546); assay: Functional cAMP formation (HTRF) in HEK-293 clonal cells expressing hGIPR, 0.1% bovine casein, without or with 1.0% human serum albumin; format: cell-based
T4 construct: expressed in transfected cells
T4 sequence (P48546 22-466): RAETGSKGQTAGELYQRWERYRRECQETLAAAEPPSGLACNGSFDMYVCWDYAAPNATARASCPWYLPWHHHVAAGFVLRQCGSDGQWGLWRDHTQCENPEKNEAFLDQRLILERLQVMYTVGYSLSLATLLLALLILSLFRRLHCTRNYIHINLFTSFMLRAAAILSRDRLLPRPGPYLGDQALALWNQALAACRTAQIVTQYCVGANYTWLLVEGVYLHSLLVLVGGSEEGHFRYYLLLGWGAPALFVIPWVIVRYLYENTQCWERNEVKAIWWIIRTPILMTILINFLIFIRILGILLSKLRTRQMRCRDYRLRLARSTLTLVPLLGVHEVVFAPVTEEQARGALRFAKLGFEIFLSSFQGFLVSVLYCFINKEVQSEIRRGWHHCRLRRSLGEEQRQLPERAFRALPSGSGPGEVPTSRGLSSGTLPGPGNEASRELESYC
Method in brief: as §1

[3] = human GcgR, geometric mean (SEM, n), read-out: Binding Affinity Ki, nM (SEM, n) hGCGR
[4] = 0.1% bovine casein and 1.0% human serum albumin, 37° C., geometric mean, read-out: hGCGR EC50, nM (SEM, n)
[5] = cAMP, incubated at 37° C., 0.1% bovine casein (no human serum albumin), geometric mean, read-out: hGCGR EC50, nM (SEM, n)
[6] = human GLP-1R, geometric mean (SEM, n), read-out: Binding Affinity Ki, nM (SEM, n) hGLP-1R
[7] = HEK293, 0.1% bovine casein and 1.0% human serum albumin, 37° C., percent of maximal response to GIP(1-42)NH2, read-out: hGIPR Emax, % ± SEM
[8] = 0.1% bovine casein and 1.0% human serum albumin, 37° C., read-out: hGLP-1R EC50, nM (SEM, n)
[9] = HEK293, 0.1% bovine casein and 1.0% human serum albumin, 37° C., percent of maximal response to GLP-1(7-36)NH2, read-out: hGLP-1R Emax, % ± SEM
[10] = HEK293, percent of maximal response to GLP-1(7-36)NH2, 37° C., 0.1% bovine casein, arithmetic mean, read-out: hGLP-1R Emax, % ± SEM
[11] = 0.1% bovine casein and 1.0% human serum albumin, 37° C., geometric mean, read-out: hGIPR EC50, nM (SEM, n)
[12] = cAMP, incubated at 37° C., 0.1% bovine casein (no human serum albumin), geometric mean, read-out: hGIPR EC50, nM (SEM, n)

Chain of hGLP-1R (P43220 24-463): as the sequence (P43220 24-463) above

SMILES | Ki [1, 3] | EC50 (hGCGR; [4]) | EC50 (hGCGR; [5]) | Ki [2, 6] | Emax (hGIPR; [7]) | EC50 (hGLP-1R; [8]) | Emax (hGLP-1R; [9]) | Emax (hGLP-1R; [10]) | EC50 (hGIPR; [11]) | EC50 (hGIPR; [12]) | further results
CC[C@H](C)[C@H](NC(=O)[C@H](CC(C)C)NC(=O)[C@](C)(Cc1ccc(O)cc1)NC(=O)[C@@H](CCC(=O)O)NC(=O)[C@@H](NC(=O)[C@H](Cc1ccccc1)NC(=O)[C@H](CCC(=O)O)NC(=O)C(C)(C)NC(=O)[C@H](CCC(N)=O)NC(=O)[C@H](C)NC(=O)[C@H](CCCCNC(=O)COCCOCCNC(=O)COCCOCCNC(=O)CC[C@H](NC(=O)CCCCCCCCCCCCC(=O)O)C(=O)O)NC(=O)[C@H](CCCN)NC(=O)[C@H](CC(=O)O)NC(=O)[C@H](CC(C)C)NC(=O)[C@](C)(CC(C)C)NC(=O)[C@@H](NC(=O)[C@H](CO)NC(=O)[C@@](C)(NC(=O)[C@H](CC(=O)O)NC(=O)[C@H](CO)NC(=O)[C@@H](NC(=O)[C@](C)(Cc1ccccc1F)NC(=O)[C@@H](NC(=O)CNC(=O)[C@H](CCC(=O)O)NC(=O)C(C)(C)NC(=O)[C@@H](N)Cc1ccc(O)cc1)[C@@H](C)O)[C@@H](C)O)C(C)C)[C@@H](C)CC)[C@@H](C)CC)C(=O)N[C@@H](CCC(=O)O)C(=O)NCC(=O)NCC(=O)N[C@@H](CCCCNC(=O)COCCOCCNC(=O)COCCOCCNC(=O)CC[C@H](NC(=O)CCCCCCCCCCCCC(=O)O)C(=O)O)C(=O)N[C@@H](CO)C(=O)N[C@@H](CO)C(=O)NCC(=O)N[C@@H](C)C(=O)N1CCC[C@H]1C(=O)N1CCC[C@H]1C(=O)N1CCC[C@H]1C(=O)N[C@@H](CO)C(N)=O [Example 52] | > 966 nM | > 9950 nM | > 9950 nM | 1.16 nM | 87.6% |  |  |  |  |  | EC50 (hGLP-1R; cAMP, incubated at 37° C., 0.1% bovine casein (no human serum albumin), read-out: hGLP-1R EC50, nM (SEM, n)): 0.384 nM
CC[C@H](C)[C@H](NC(=O)[C@H](CC(C)C)NC(=O)[C@](C)(Cc1ccc(O)cc1)NC(=O)[C@H](CCCCNC(=O)COCCOCCNC(=O)COCCOCCNC(=O)CC[C@H](NC(=O)CC[C@H](NC(=O)CCCCCCCCCOc1ccc(C(=O)O)cc1)C(=O)O)C(=O)O)NC(=O)[C@@H](NC(=O)[C@H](Cc1ccccc1)NC(=O)[C@H](CCCN)NC(=O)C(C)(C)NC(=O)[C@H](CCC(N)=O)NC(=O)[C@H](C)NC(=O)[C@H](CCC(N)=O)NC(=O)[C@H](CCCN)NC(=O)[C@H](CC(=O)O)NC(=O)[C@H](CC(C)C)NC(=O)[C@](C)(CC(C)C)NC(=O)[C@@H](NC(=O)C(C)(C)NC(=O)[C@H](Cc1ccncc1)NC(=O)[C@H](CC(=O)O)NC(=O)[C@H](CO)NC(=O)[C@@H](NC(=O)[C@](C)(Cc1ccccc1F)NC(=O)[C@@H](NC(=O)CNC(=O)[C@H](CCC(=O)O)NC(=O)C(C)(C)NC(=O)[C@@H](N)Cc1ccc(O)cc1)[C@@H](C)O)[C@@H](C)O)[C@@H](C)CC)[C@@H](C)CC)C(=O)N[C@@H](CCCCNC(=O)COCCOCCNC(=O)COCCOCCNC(=O)CC[C@H](NC(=O)CC[C@H](NC(=O)CCCCCCCCCOc1ccc(C(=O)O)cc1)C(=O)O)C(=O)O)C(=O)NCC(=O)NCC(=O)N1CCC[C@H]1C(=O)N[C@@H](CO)C(=O)N[C@@H](CO)C(=O)NCC(=O)N[C@@H](C)C(=O)N1CCC[C@H]1C(=O)N1CCC[C@H]1C(=O)N1CCC[C@H]1C(=O)N[C@@H](CO)C(N)=O [Example 475] |  |  |  |  |  |  |  |  |  |  | Emax (hGLP-1R; HEK293, read-out: hGLP-1R Emax, % ± SEM, cAMP, 37° C., 0.1% bovine casein, percent of maximal response to GLP-1(7-36)NH2, arithmetic mean): 116%; EC50 (hGLP-1R; hGLP-1R EC50, nM (SEM, n), cAMP, 37° C., 0.1% bovine casein (no human serum albumin)): 0.143 nM; Ki [1]: 139 nM; EC50 (hGCGR; hGCGR EC50, nM (SEM, n), cAMP, 37° C., 0.1% bovine casein (no human serum albumin), geometric mean): > 9950 nM; EC50 (hGCGR; hGCGR EC50, nM (SEM, n), cAMP, 37° C., 0.1% bovine casein and 1.0% human serum albumin, geometric mean (SEM, n)): > 9950 nM; Ki [2]: 0.189 nM; Emax (hGIPR; HEK293, read-out: hGIPR Emax, % ± SEM, cAMP, 37° C., 0.1% bovine casein and 1.0% human serum albumin, percent of maximal response to GIP(1-42)NH2): 84.6%; EC50 (hGIPR; hGIPR EC50, nM (SEM, n), cAMP, 37° C., 0.1% bovine casein (no human serum albumin), geometric mean): 0.012 nM; EC50 (hGIPR; hGIPR EC50, nM (SEM, n), cAMP, 37° C., 0.1% bovine casein and 1.0% human serum albumin, geometric mean (SEM, n)): 0.211 nM
CC[C@H](C)[C@H](NC(=O)[C@H](CC(C)C)NC(=O)[C@](C)(Cc1ccc(O)cc1)NC(=O)[C@@H](CCC(=O)O)NC(=O)[C@@H](NC(=O)[C@H](Cc1ccccc1)NC(=O)[C@H](CCC(=O)O)NC(=O)C(C)(C)NC(=O)[C@H](CCC(N)=O)NC(=O)[C@H](C)NC(=O)[C@H](CCCCNC(=O)COCCOCCNC(=O)COCCOCCNC(=O)CC[C@H](NC(=O)CCCCCCCCCCCCC(=O)O)C(=O)O)NC(=O)[C@H](CCCN)NC(=O)[C@H](CC(=O)O)NC(=O)[C@H](CC(C)C)NC(=O)[C@](C)(CC(C)C)NC(=O)[C@@H](NC(=O)[C@H](CO)NC(=O)[C@H](Cc1ccncc1)NC(=O)[C@H](CC(=O)O)NC(=O)[C@H](CO)NC(=O)[C@@H](NC(=O)[C@](C)(Cc1ccccc1F)NC(=O)[C@@H](NC(=O)CNC(=O)[C@H](CCC(=O)O)NC(=O)C(C)(C)NC(=O)[C@@H](N)Cc1ccc(O)cc1)[C@@H](C)O)[C@@H](C)O)[C@@H](C)CC)[C@@H](C)CC)C(=O)N[C@@H](CCC(=O)O)C(=O)NCC(=O)NCC(=O)N[C@@H](CCCCNC(=O)COCCOCCNC(=O)COCCOCCNC(=O)CC[C@H](NC(=O)CCCCCCCCCCCCC(=O)O)C(=O)O)C(=O)N[C@@H](CO)C(=O)N[C@@H](CO)C(=O)NCC(=O)N[C@@H](C)C(=O)N1CCC[C@H]1C(=O)N1CCC[C@H]1C(=O)N1CCC[C@H]1C(=O)N[C@@H](CO)C(N)=O [Example 1] | > 969 nM | > 9950 nM | > 9950 nM | 2.33 nM | 87.5 ± 3.24% | 30.7 nM | 94.3 ± 4.39% | 97 ± 4.47% | 0.696 nM | 0.0145 nM | Emax (hGIPR; HEK293, percent of maximal response to GIP(1-42)NH2, 37° C., 0.1% bovine casein, arithmetic mean, read-out: hGIPR Emax, % ± SEM): 90.2 ± 2.82%
CC[C@H](C)[C@H](NC(=O)[C@H](CC(C)C)NC(=O)[C@](C)(Cc1ccc(O)cc1)NC(=O)[C@@H](CCC(=O)O)NC(=O)[C@@H](NC(=O)[C@H](Cc1ccccc1)NC(=O)[C@H](CCC(=O)O)NC(=O)C(C)(C)NC(=O)[C@H](CCC(N)=O)NC(=O)[C@H](C)NC(=O)[C@H](CCCCNC(=O)COCCOCCNC(=O)COCCOCCNC(=O)COCCOCCNC(=O)CC[C@H](NC(=O)CCCCCCCCCCCCC(=O)O)C(=O)O)NC(=O)[C@H](CCCN)NC(=O)[C@H](CC(=O)O)NC(=O)[C@H](CC(C)C)NC(=O)[C@](C)(CC(C)C)NC(=O)[C@@H](NC(=O)[C@H](CO)NC(=O)[C@H](Cc1ccncc1)NC(=O)[C@H](CC(=O)O)NC(=O)[C@H](CO)NC(=O)[C@@H](NC(=O)[C@](C)(Cc1ccccc1F)NC(=O)[C@@H](NC(=O)CNC(=O)[C@H](CCC(=O)O)NC(=O)C(C)(C)NC(=O)[C@@H](N)Cc1ccc(O)cc1)[C@@H](C)O)[C@@H](C)O)[C@@H](C)CC)[C@@H](C)CC)C(=O)N[C@@H](CCC(=O)O)C(=O)NCC(=O)NCC(=O)N[C@@H](CCCCNC(=O)COCCOCCNC(=O)COCCOCCNC(=O)COCCOCCNC(=O)CC[C@H](NC(=O)CCCCCCCCCCCCC(=O)O)C(=O)O)C(=O)N[C@@H](CO)C(=O)N[C@@H](CO)C(=O)NCC(=O)N[C@@H](C)C(=O)N1CCC[C@H]1C(=O)N1CCC[C@H]1C(=O)N1CCC[C@H]1C(=O)N[C@@H](CO)C(N)=O [Example 30] | > 966 nM | > 9950 nM | > 9950 nM | 2.66 nM |  | 18.3 nM | 96.5 ± 0.219% | 97.8 ± 10.7% | 0.337 nM | 0.0175 nM | 
